Legend:
Melanocortin MC4 (h) = molecular target: T1, Melanocortin MC4 (h) (Homo sapiens, UniProt P32245); assay: Binding MC4 (h) (ag); conditions: read-out: % Inhibition of Control Specific Binding @ 10 μM
T1 construct: expressed in transfected cells; host or cells: CHO cells
Description: (§1) Radioligand binding assay methods utilized to measure the activity of compounds of the invention will be familiar to those skilled in the art. In each assay case, the assay components such as, for example, the cell-type, ligand, reference compound and the like, will be familiar to practitioners of such an assay.
(§2) Analysis and Expression of Results: Compounds of the invention were tested in the biochemical assays and percent inhibition of specific binding was determined. The specific ligand binding to the receptors is defined as the difference between the total binding and the nonspecific binding determined in the presence of an excess of unlabelled ligand. The results are expressed as a percent inhibition of control specific binding (100−((measured specific binding/control specific binding)×100)) obtained in the presence of test compounds.

NOP (ORL1) (h) = molecular target: T2, NOP (ORL1) (h) (Homo sapiens, UniProt P41146); assay: Binding NOP (ORL1) (h) (ag); conditions: read-out: % Inhibition of Control Specific Binding @ 10 μM
T2 construct: expressed in transfected cells; host or cells: HEK-293 cells
T2 sequence (P41146 whole entry): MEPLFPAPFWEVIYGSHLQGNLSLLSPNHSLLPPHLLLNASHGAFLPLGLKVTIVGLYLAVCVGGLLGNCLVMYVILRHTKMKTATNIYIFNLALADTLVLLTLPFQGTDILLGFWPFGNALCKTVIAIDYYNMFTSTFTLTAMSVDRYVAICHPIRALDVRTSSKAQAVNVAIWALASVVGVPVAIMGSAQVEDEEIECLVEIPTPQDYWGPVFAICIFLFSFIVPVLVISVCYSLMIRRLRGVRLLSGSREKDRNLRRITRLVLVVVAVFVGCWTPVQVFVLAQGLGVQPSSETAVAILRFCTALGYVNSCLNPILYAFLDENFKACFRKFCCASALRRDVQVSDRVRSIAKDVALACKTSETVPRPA
Description: as §1, §2

PDE2A (h) = molecular target: T3, PDE2A (h) (Homo sapiens, UniProt O00408); assay: Enzyme assay PDE2A (h); type: biochemical; conditions: read-out: % Inhibition of Control Values @ 10 μM
T3 construct: host or cells: Sf9 cells
T3 sequence (O00408 whole entry): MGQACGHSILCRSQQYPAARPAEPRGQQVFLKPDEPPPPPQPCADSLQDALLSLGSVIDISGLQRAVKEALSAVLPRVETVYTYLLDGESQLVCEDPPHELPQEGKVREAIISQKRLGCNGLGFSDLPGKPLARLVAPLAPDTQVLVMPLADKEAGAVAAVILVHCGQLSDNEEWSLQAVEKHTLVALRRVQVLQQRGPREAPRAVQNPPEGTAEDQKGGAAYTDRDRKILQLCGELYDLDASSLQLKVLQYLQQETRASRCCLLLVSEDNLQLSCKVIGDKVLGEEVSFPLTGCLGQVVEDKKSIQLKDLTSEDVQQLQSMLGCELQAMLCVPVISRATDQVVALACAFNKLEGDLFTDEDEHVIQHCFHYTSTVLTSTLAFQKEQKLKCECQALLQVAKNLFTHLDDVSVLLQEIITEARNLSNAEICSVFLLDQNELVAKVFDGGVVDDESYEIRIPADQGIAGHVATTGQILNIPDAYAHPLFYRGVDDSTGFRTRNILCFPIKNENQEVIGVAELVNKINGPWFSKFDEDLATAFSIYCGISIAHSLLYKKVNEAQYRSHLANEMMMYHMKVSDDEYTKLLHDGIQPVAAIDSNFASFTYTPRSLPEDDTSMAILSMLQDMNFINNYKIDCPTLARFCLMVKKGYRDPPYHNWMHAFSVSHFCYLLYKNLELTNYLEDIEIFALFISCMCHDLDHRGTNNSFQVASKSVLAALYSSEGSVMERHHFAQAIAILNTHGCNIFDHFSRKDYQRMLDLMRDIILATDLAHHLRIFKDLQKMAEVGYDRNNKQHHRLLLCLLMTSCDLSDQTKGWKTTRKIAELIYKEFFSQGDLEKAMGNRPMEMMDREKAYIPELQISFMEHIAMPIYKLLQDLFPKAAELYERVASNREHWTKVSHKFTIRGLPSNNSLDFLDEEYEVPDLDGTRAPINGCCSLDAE
Source text: The enzyme assays provided below will be familiar to those skilled in the art.
Analysis and Expression of Results: The results are expressed as a percent of control specific activity ((measured specific activity/control specific activity)×100) obtained in the presence of the test compounds.

[1] = molecular target: T4, Cholecystokinin CCK1 (CCKA) (h) (Homo sapiens, UniProt P32238); assay: Binding CCK1 (CCKA) (h) (ag); conditions: read-out: % Inhibition of Control Specific Binding @ 10 μM
T4 construct: expressed in transfected cells; host or cells: CHO cells
T4 sequence (P32238 1-428): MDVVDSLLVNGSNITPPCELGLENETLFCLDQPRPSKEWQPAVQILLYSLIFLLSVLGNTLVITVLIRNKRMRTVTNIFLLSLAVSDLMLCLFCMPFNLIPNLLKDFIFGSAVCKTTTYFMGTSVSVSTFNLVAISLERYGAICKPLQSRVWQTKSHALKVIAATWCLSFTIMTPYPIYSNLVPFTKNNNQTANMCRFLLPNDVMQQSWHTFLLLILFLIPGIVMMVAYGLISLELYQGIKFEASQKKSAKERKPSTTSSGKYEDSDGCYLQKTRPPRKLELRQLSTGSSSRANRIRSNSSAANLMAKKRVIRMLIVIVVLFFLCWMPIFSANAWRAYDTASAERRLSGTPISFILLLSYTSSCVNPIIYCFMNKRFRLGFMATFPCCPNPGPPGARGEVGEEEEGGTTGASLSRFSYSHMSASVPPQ
Description: as §1, §2

Neurokinin NK2 (h) = molecular target: T5, Neurokinin NK2 (h) (Homo sapiens, UniProt P21452); assay: Binding NK2 (h) (ag); conditions: read-out: % Inhibition of Control Specific Binding @ 10 μM
T5 construct: expressed in transfected cells; host or cells: CHO cells
T5 sequence (P21452 1-398): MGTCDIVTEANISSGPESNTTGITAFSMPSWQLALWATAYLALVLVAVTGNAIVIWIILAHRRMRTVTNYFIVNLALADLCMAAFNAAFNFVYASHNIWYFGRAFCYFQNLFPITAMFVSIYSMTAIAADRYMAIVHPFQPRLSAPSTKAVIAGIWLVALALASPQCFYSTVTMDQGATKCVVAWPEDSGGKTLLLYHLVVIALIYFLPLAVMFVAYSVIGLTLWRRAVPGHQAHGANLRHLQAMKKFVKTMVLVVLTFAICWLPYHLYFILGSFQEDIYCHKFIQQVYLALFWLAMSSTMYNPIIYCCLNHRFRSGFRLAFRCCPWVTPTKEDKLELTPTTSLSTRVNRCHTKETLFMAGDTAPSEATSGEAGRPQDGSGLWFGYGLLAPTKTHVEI
Description: as §1, §2

Endothelin ETA (h) = molecular target: T6, Endothelin ETA (h) (Homo sapiens, UniProt P25101); assay: Binding ETA (h) (ag); conditions: read-out: % Inhibition of Control Specific Binding @ 10 μM
T6 construct: expressed in transfected cells; host or cells: CHO cells
T6 sequence (P25101 21-427): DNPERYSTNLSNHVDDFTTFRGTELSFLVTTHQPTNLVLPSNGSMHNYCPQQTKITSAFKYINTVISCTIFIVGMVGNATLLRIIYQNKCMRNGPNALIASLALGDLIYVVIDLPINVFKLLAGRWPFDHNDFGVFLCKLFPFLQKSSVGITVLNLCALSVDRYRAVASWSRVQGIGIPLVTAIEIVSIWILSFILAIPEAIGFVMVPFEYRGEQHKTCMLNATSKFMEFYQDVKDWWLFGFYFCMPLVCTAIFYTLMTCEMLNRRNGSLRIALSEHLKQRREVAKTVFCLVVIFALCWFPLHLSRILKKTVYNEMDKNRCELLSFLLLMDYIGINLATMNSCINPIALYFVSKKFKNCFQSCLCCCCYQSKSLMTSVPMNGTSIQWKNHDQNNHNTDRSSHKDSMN
Description: as §1, §2

Vasopressin V1a (h) = molecular target: T7, Vasopressin V1a (h) (Homo sapiens, UniProt P37288); assay: Binding V1a (h) (ag); conditions: read-out: % Inhibition of Control Specific Binding @ 10 μM
T7 construct: expressed in transfected cells; host or cells: CHO cells
T7 sequence (P37288 whole entry): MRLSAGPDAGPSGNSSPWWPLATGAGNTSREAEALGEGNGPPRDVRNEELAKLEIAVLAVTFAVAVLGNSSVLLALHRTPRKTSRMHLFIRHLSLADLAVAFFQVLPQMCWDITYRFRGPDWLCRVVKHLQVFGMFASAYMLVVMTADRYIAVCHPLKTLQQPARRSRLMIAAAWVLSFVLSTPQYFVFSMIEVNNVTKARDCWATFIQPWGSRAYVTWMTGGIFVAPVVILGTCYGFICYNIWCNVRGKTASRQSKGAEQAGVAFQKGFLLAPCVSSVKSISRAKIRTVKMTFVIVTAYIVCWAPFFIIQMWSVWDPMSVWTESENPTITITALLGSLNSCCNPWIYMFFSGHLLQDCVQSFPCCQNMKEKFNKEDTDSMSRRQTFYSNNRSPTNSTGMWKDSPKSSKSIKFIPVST
Description: as §1, §2

Somatostatin sst5 (h) = molecular target: T8, Somatostatin sst5 (h) (Homo sapiens, UniProt P35346); assay: Binding sst5 (h) (ag); conditions: read-out: % Inhibition of Control Specific Binding @ 10 μM
T8 construct: expressed in transfected cells; host or cells: CHO cells
T8 sequence (P35346 whole entry): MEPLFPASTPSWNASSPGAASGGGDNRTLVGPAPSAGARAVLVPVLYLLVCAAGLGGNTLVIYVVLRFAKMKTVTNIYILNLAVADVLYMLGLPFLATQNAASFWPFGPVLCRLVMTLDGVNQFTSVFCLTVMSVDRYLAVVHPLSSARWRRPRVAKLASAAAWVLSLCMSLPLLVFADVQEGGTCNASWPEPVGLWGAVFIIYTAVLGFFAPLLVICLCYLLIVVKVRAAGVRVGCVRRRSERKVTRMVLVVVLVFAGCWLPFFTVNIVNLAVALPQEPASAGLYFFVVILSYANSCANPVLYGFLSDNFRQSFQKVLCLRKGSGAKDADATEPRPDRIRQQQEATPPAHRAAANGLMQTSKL
Description: as §1, §2

[2] = [14C]RD162′ radio-HPLC metabolite profile in Pooled Rat Plasma; type: in vivo, Sprague Dawley rats; conditions: [14C]RD162′ 100 mg/kg/day oral, day 7, 4 h
Description: The rats were dosed once a day for seven consecutive days; four hours after dosing on the seventh day, plasma was collected from all three rats. The plasma samples were stored at approximately −70° C. or colder.
Positive ion electrospray LC/MS and LC/MS/MS were used to analyze the metabolites.
To prepare the Pooled Rat Plasma for HPLC analysis, approximately 1 g of the plasma sample was combined with acetonitrile (ACN, sample:ACN, 1:3, v:v), vortex mixed, sonicated in cold water, centrifuged, and the supernatants were removed. The extraction was repeated twice and the respective supernatants were combined. […] The combined supernatants were evaporated to dryness and reconstituted in 1 mL of 0.1% formic acid in reverse osmosis (RO) water:ACN: methanol (MeOH, 50:45:5, v:v:v). […] The reconstituted sample was analyzed by HPLC to determine the metabolite profile with fractions collected at 10-second intervals and analyzed by solid scintillation counting.
The prepared samples were analyzed using the following LC/MS/MS conditions: HPLC: Hewlett Packard 1100 series; Mobile Phase: 0.1% formic acid in reverse osmosis water (A) and acetonitrile (B); Column: Agilent Eclipse XDB-C18, 4.6×150 mm, 5 μm; Guard column: Phenomenex Security Guard Cartridge C18, 3×4 mm; Column temperature: 20° C.; Gradient: 20-80% B in 40 min; Flow Rate: 1.5 mL/min.

T1 sequence (P32245 whole entry): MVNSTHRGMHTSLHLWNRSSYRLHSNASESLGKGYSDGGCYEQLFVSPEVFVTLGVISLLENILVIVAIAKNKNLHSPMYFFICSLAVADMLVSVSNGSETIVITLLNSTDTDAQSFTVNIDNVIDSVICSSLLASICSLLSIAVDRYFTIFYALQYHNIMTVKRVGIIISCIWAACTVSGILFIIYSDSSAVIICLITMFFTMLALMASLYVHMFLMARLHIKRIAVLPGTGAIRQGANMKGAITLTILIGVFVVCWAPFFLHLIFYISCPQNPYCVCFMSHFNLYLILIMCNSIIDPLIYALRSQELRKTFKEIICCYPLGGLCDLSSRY

| SMILES | inhibition at 10 µM (Melanocortin MC4 (h)) | inhibition at 10 µM (NOP (ORL1) (h)) | inhibition at 10 µM (PDE2A (h)) | inhibition at 10 µM [1] | inhibition at 10 µM (Neurokinin NK2 (h)) | inhibition at 10 µM (Endothelin ETA (h)) | inhibition at 10 µM (Vasopressin V1a (h)) | inhibition at 10 µM (Somatostatin sst5 (h)) | % Injected Radioactivity (%) [2] | % Recovered Radioactivity (%) [2] | Peak Area (mV) [2] | Peak Height (mV) [2] |
| --- | --- | --- | --- | --- | --- | --- | --- | --- | --- | --- | --- | --- |
| CC1(C)C(=O)N(c2ccc(C#N)c(C(F)(F)F)c2)C(=O)N1c1ccc(C(N)=O)c(F)c1 [(MIII), 4-(3-(4-cyano-3-(trifluoromethyl)phenyl)-5,5-dimethyl-2,4-dioxoimidazolidin-1-yl)-2-fluorobenzamide] | -11% | 0% | 2% | -14% | 0% | -12% | -1% | 2% | 7.96% | 12.50% | 426 mV | 77 mV |
| CC1(C)C(=O)N(c2ccc(C#N)c(C(F)(F)F)c2)C(=S)N1c1ccc(C(=O)O)c(F)c1 [(MI), 4-(3-(4-cyano-3-(trifluoromethyl)phenyl)-5,5-dimethyl-4-oxo-2-thioxoimidazolidin-1-yl)-2-fluorobenzoic acid] | -23% | -10% | 12% | 47% | -6% | -21% | 2% | -25% | 11.02% | 17.31% | 589 mV | 86 mV |
| CNC(=O)c1ccc(N2C(=O)N(c3ccc(C#N)c(C(F)(F)F)c3)C(=O)C2(C)C)cc1F [(MIV), 4-(3-(4-cyano-3-(trifluoromethyl)phenyl)-5,5-dimethyl-2,4-dioxoimidazolidin-1-yl)-2-fluoro-N-methylbenzamide] | -15% | -2% | 0% | 25% | 2% | -27% | -8% | -7% | 8.45% | 13.27% | 452 mV | 63 mV |
| CC1(C)C(=O)N(c2ccc(C#N)c(C(F)(F)F)c2)C(=S)N1c1ccc(C(N)=O)c(F)c1 [(MII), 4-(3-(4-Cyano-3-(trifluoromethyl)phenyl)-5,5-dimethyl-4-oxo-2-thioxoimidazolidin-1-yl)-2-fluorobenzamide] | -25% | -4% | 2% | 0% | -3% | -16% | 15% | 16% | 5.38% | 8.45% | 288 mV | 43 mV |
